Assay results from patent publication US8952024B2, “Herbicidal pyrimidone derivatives” (E I du Pont de Nemours and Company, priority 2009, dated 2015).

What was measured:
Type in all cases: in vivo
Settings in all cases: Postemergence
wild oat (Avena fatua) = test: Test B pre-/postemergence plant response
Summary of the method: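 Pre-em in loam/sand; post-em at 1–4 leaf (2–18 cm) in peat mix. Solvent + surfactant formulation. Greenhouse 13–15 d; visual % control vs untreated, 0–100.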

[1] = system: Italian ryegrass (Lolium multiflorum); test: Test D pre-/postemergence plant response
Text: (§1) Seeds of plant species selected from bermudagrass (Cynodon dactylon), Surinam grass (Brachiaria decumbens), large crabgrass (Digitaria sanguinalis), green foxtail (Setaria viridis), goosegrass (Eleusine indica), johnsongrass (Sorghum halepense), kochia (Kochia scoparia), morningglory (pitted morningglory, Ipomoea lacunosa), nutsedge (purple nutsedge, Cyperus rotundus), ragweed (common ragweed, Ambrosia elatior), black mustard (Brassica nigra), guineagrass (Panicum maximum), dallisgrass (Paspalum dilatatum), barnyardgrass (Echinochloa crus-galli), sandbur (southern sandbur, Cenchrus echinatus), sowthistle (common sowthistle, Sonchus oleraceous), prickly sida (Sida spinosa), Italian ryegrass (Lolium multiflorum), purslane (common purslane, Portulaca oleracea), signalgrass (broadleaf signalgrass, Brachiaria platyphylla), groundsel (common groundsel, Senecio vulgaris), chickweed (common chickweed, Stellaria media), dayflower (Virginia (VA) dayflower, Commelina virginica), bluegrass (annual bluegrass, Poa annua), naked crabgrass (Digitaria nuda), itchgrass (Rottboellia cochinchinensis), quackgrass (Elytrigia repens), field bindweed (Convolvulus arvensis), spanishneedles (Bidens bipinnata), mallow (common mallow, Malva sylvestris) and Russian thistle (Salsola kali), were planted into a blend of loam soil and sand and treated preemergence with test chemicals formulated in a non-phytotoxic solvent mixture which included a surfactant. At the same time, plants from these weed species were treated with postemergence applications of the test chemicals formulated in the same manner. Plants ranged in height from 2 to 18 cm (1- to 4-leaf stage) for postemergence treatments.
(§2) Treated plants and controls were maintained in a greenhouse for 14 to 21 days, after which time all species were visually evaluated and compared to controls. Plant response ratings, summarized in Table D, are based on a scale of 0 to 100 where 0 is no effect and 100 is complete control. A dash (-) response means no test result.

[2] = system: Surinam grass (Brachiaria decumbens); test: Test D pre-/postemergence plant response
Text: as §1, §2

[3] = system: field bindweed (Convolvulus arvensis); test: Test D pre-/postemergence plant response
Text: as §1, §2

[4] = system: groundsel (common groundsel, Senecio vulgaris); test: Test D pre-/postemergence plant response
Text: as §1, §2

[5] = system: guineagrass (Panicum maximum); test: Test D pre-/postemergence plant response
Text: as §1, §2

[6] = system: johnsongrass (Sorghum halepense); test: Test D pre-/postemergence plant response
Text: as §1, §2

[7] = system: nutsedge (purple nutsedge, Cyperus rotundus); test: Test D pre-/postemergence plant response
Text: as §1, §2

[8] = system: prickly sida (Sida spinosa); test: Test D pre-/postemergence plant response
Text: as §1, §2

[9] = 31 g ai/ha, 0 to 100 scale (0 no effect, 100 complete control)
[10] = 62 g ai/ha, scale 0 to 100 (0 no effect, 100 complete control)
[11] = 250 g ai/ha, scale 0 to 100 (0 no effect, 100 complete control), 13 to 15 days
[12] = 125 g ai/ha, scale 0 to 100 (0 no effect, 100 complete control)
[13] = 250 g ai/ha, scale 0 to 100 (0 no effect, 100 complete control)

## COCCn1c(-c2cccc(F)c2)ncc(C(=O)C2=C(O)C3CCC(C3)C2=O)c1=O (stereo not shown) [Compound 235]
Wild oat (Avena fatua); [9]
  Plant response rating, Oat, Wild: 35
Wild oat (Avena fatua); [10]
  Plant response rating, Oat, Wild: 50
Wild oat (Avena fatua); [11]
  Plant response rating, Oat, Wild: 95
[1]; 31 g ai/ha, scale 0 to 100
  Plant response rating, Ryegrass, Italian: 5
[1]; [10]
  Plant response rating, Ryegrass, Italian: 5
[1]; [12]
  Plant response rating, Ryegrass, Italian: 5
[1]; [13]
  Plant response rating, Ryegrass, Italian: 35
[2]; 31 g ai/ha, scale 0 to 100
  Plant response rating, Surinam Grass: 75
[2]; [10]
  Plant response rating, Surinam Grass: 75
[2]; [12]
  Plant response rating, Surinam Grass: 75
[2]; [13]
  Plant response rating, Surinam Grass: 85
[3]; 31 g ai/ha, scale 0 to 100
  Plant response rating, Field Bindweed: 60
[3]; [10]
  Plant response rating, Field Bindweed: 65
[3]; [12]
  Plant response rating, Field Bindweed: 65
[3]; [13]
  Plant response rating, Field Bindweed: 70
[4]; 31 g ai/ha, scale 0 to 100
  Plant response rating, Groundsel: 100
[4]; [10]
  Plant response rating, Groundsel: 100
[4]; [12]
  Plant response rating, Groundsel: 100
[4]; [13]
  Plant response rating, Groundsel: 100
[5]; 31 g ai/ha, scale 0 to 100
  Plant response rating, Guineagrass: 75
[5]; [10]
  Plant response rating, Guineagrass: 75
[5]; [12]
  Plant response rating, Guineagrass: 75
[5]; [13]
  Plant response rating, Guineagrass: 75
[6]; 31 g ai/ha, scale 0 to 100
  Plant response rating, Johnsongrass: 70
[6]; [10]
  Plant response rating, Johnsongrass: 70
[6]; [12]
  Plant response rating, Johnsongrass: 85
[6]; [13]
  Plant response rating, Johnsongrass: 85
[7]; 31 g ai/ha, scale 0 to 100
  Plant response rating, Nutsedge, Purple: 5
[7]; [10]
  Plant response rating, Nutsedge, Purple: 5
[7]; [12]
  Plant response rating, Nutsedge, Purple: 30
[7]; [13]
  Plant response rating, Nutsedge, Purple: 40
[8]; 31 g ai/ha, scale 0 to 100
  Plant response rating, Prickly Sida: 65
[8]; [10]
  Plant response rating, Prickly Sida: 65
[8]; [12]
  Plant response rating, Prickly Sida: 70
[8]; [13]
  Plant response rating, Prickly Sida: 75

## COCCCn1c(-c2cccc(F)c2)ncc(C(=O)C2=C(O)C3CCC(C3)C2=O)c1=O (stereo not shown) [Compound 238]
Wild oat (Avena fatua); [9]
  Plant response rating, Oat, Wild: 30
Wild oat (Avena fatua); [10]
  Plant response rating, Oat, Wild: 35
Wild oat (Avena fatua); 125 g ai/ha, scale 0 (no effect) to 100 (complete control), 13 to 15 days
  Plant response rating, Oat, Wild: 50
Wild oat (Avena fatua); [11]
  Plant response rating, Oat, Wild: 60
[1]; 31 g ai/ha, scale 0 to 100
  Plant response rating, Ryegrass, Italian: 5
[1]; [10]
  Plant response rating, Ryegrass, Italian: 5
[1]; [12]
  Plant response rating, Ryegrass, Italian: 5
[1]; [13]
  Plant response rating, Ryegrass, Italian: 5
[2]; 31 g ai/ha, scale 0 to 100
  Plant response rating, Surinam Grass: 75
[2]; [10]
  Plant response rating, Surinam Grass: 75
[2]; [12]
  Plant response rating, Surinam Grass: 75
[2]; [13]
  Plant response rating, Surinam Grass: 85
[3]; 31 g ai/ha, scale 0 to 100
  Plant response rating, Field Bindweed: 35
[3]; [10]
  Plant response rating, Field Bindweed: 50
[3]; [13]
  Plant response rating, Field Bindweed: 50
[4]; 31 g ai/ha, scale 0 to 100
  Plant response rating, Groundsel: 100
[4]; [10]
  Plant response rating, Groundsel: 100
[4]; [12]
  Plant response rating, Groundsel: 100
[4]; [13]
  Plant response rating, Groundsel: 100
[5]; 31 g ai/ha, scale 0 to 100
  Plant response rating, Guineagrass: 25
[5]; [10]
  Plant response rating, Guineagrass: 50
[5]; [12]
  Plant response rating, Guineagrass: 65
[5]; [13]
  Plant response rating, Guineagrass: 75
[6]; 31 g ai/ha, scale 0 to 100
  Plant response rating, Johnsongrass: 60
[6]; [10]
  Plant response rating, Johnsongrass: 70
[6]; [12]
  Plant response rating, Johnsongrass: 75
[6]; [13]
  Plant response rating, Johnsongrass: 80
[7]; 31 g ai/ha, scale 0 to 100
  Plant response rating, Nutsedge, Purple: 5
[7]; [10]
  Plant response rating, Nutsedge, Purple: 10
[7]; [12]
  Plant response rating, Nutsedge, Purple: 20
[7]; [13]
  Plant response rating, Nutsedge, Purple: 20
[8]; 31 g ai/ha, scale 0 to 100
  Plant response rating, Prickly Sida: 30
[8]; [10]
  Plant response rating, Prickly Sida: 30
[8]; [12]
  Plant response rating, Prickly Sida: 50
[8]; [13]
  Plant response rating, Prickly Sida: 65
